Source: ChEMBL document CHEMBL1133129, “A focused compound library of novel N-(7-indolyl)benzenesulfonamides for the discovery of potent cell cycle inhibitors” (Bioorg Med Chem Lett, 2000)
Converted amounts (≈) assume the structure as drawn. The source made the active and inactive calls. No cut-off for these calls is given here.

Columns and labels:
P388 [1] = experiment: Effect on the cell cycle progression using P388 cells at 4.0 ug/mL for 24 hr; No effect; format: functional, cell-based; conditions: Mus musculus
P388 [2] = experiment: Effect on the cell cycle progression using P388 cells at 4.0 ug/mL for 24 hr; G2/M arrest; format: functional, cell-based; conditions: Mus musculus
Tubulin (Bos taurus) [3] = target: T1, Tubulin (Bos taurus) (UniProt Q6B856+Q862L2+Q862F3); experiment: Compound was tested against bovine brain tubulin polymerization; active; format: functional
MC-38 [4] = experiment: In vitro antiproliferative activity (4 ug/mL) was measured against colon 38 cancer cell line using MTT colorimetric assay; format: functional, cell-based; conditions: Mus musculus
KB [5] = experiment: In vitro antiproliferative activity (4 ug/mL) was measured against KB cancer cell line using MTT colorimetric assay; format: functional, cell-based; conditions: Homo sapiens
P388 [6] = experiment: In vitro antiproliferative activity was measured against P388 cancer cell line using MTT colorimetric assay; conditions: Mus musculus
MC-38 [7] = experiment: In vitro antiproliferative activity measured against colon 38 cancer cell line using MTT colorimetric assay; format: functional, cell-based; conditions: Mus musculus
P388 [8] = experiment: In vitro antiproliferative activity measured against P388 cancer cell line using MTT colorimetric assay; format: functional, cell-based; conditions: Mus musculus
KB [9] = experiment: In vitro antiproliferative activity measured against KB cancer cell line using MTT colorimetric assay; format: functional, cell-based; conditions: Homo sapiens
P388 [10] = experiment: Effect on the cell cycle progression using P388 cells at 4.0 ug/mL for 24 hr; GI increase; format: functional, cell-based; conditions: Mus musculus
P388 [11] = experiment: Concentration at which compound caused cellular accumulation in GI phase in P388 cells; format: functional, cell-based; conditions: Mus musculus
Bos taurus = species on record: Bos taurus; experiment: Inhibitory activity against bovine microtubule assembly; format: functional
P388 [12] = experiment: Effect on the cell cycle progression using P388 cells at 4.0 ug/mL for 24 hr; G2/M increase; format: functional, cell-based; conditions: Mus musculus
P388 [13] = experiment: Effect on the cell cycle progression using P388 cells at 4.0 ug/mL for 24 hr; Effect:G2/M arrest & 4C-8C drug treated cells underwent an extra DNA replication without the completion of mitosis; format: functional, cell-based; conditions: Mus musculus
Tubulin (Bos taurus) [14] = target: T1, Tubulin (Bos taurus); experiment: Compound was tested against bovine brain tubulin polymerization; format: functional
P388 [15] = experiment: Effect on the cell cycle progression using P388 cells at 4.0 ug/mL for 24 hr; G2/M arrest & 4C-8C drug treated cells underwent an extra DNA replication without the completion of mitosis; format: functional, cell-based; conditions: Mus musculus

| Compound | IC50 (MC-38 [7]) [µg/mL] | IC50 (P388 [8]) [µg/mL] | IC50 (KB [9]) [µg/mL] | Cell cycle analysis (P388 [10]) | also measured |
| --- | --- | --- | --- | --- | --- |
| O=S(=O)(Nc1cccc2cc[nH]c12)c1ccc(Cl)cc1 |  |  |  |  | Cell cycle analysis (P388 [1]): inactive |
| COc1ccc(S(=O)(=O)Nc2cccc3cc(Cl)[nH]c23)cc1 |  |  |  |  | Cell cycle analysis (P388 [2]): G2/M arrest; Activity (Tubulin (Bos taurus) [3]): Active; IC50 (MC-38 [4]): 0.17 µg/mL (≈ 0.505 µM); IC50 (KB [5]): 0.12 µg/mL (≈ 0.356 µM); IC50 (P388 [6]): 0.11 µg/mL (≈ 0.327 µM) |
| COc1ccc(S(=O)(=O)Nc2cc(Cl)cc3cc[nH]c23)cc1 | 0.64 (≈ 1.9 µM) | 0.27 (≈ 0.802 µM) | 0.21 (≈ 0.624 µM) |  | Cell cycle analysis (P388 [2]): G2/M arrest |
| Cc1ccc(S(=O)(=O)Nc2cccc3cc(Cl)[nH]c23)cc1 | 0.18 (≈ 0.561 µM) | 0.14 (≈ 0.436 µM) | 0.11 (≈ 0.343 µM) |  | Cell cycle analysis (P388 [2]): G2/M arrest |
| O=[N+]([O-])c1ccc(S(=O)(=O)Nc2cccc3c(Cl)c[nH]c23)cc1 | 0.34 (≈ 0.967 µM) | 2.3 (≈ 6.54 µM) | 14 (≈ 39.8 µM) | GI increase |  |
| Nc1ccc(S(=O)(=O)Nc2cccc3cc[nH]c23)cc1 |  |  |  |  | Cell cycle analysis (P388 [1]): inactive |
| Nc1ccc(S(=O)(=O)Nc2ccc(Br)c3c(Cl)c[nH]c23)cc1 | 0.14 (≈ 0.349 µM) | 0.64 (≈ 1.6 µM) | 13 (≈ 32.4 µM) | GI increase |  |
| N#Cc1ccc(S(=O)(=O)Nc2ccc(Cl)c3cc[nH]c23)cc1 | 0.22 (≈ 0.663 µM) | 1.8 (≈ 5.43 µM) | 15 (≈ 45.2 µM) | GI increase |  |
| O=S(=O)(Nc1ccc(Cl)c2cc[nH]c12)c1ccc(Cl)cc1 | 0.66 (≈ 1.93 µM) | 4.6 (≈ 13.5 µM) | 9.7 (≈ 28.4 µM) | GI increase |  |
| Cc1ccc(S(=O)(=O)Nc2cccc3cc(O)[nH]c23)cc1 |  |  |  |  | Cell cycle analysis (P388 [2]): G2/M arrest; Activity (Tubulin (Bos taurus) [3]): Active; IC50 (MC-38 [4]): 0.17 µg/mL (≈ 0.562 µM); IC50 (KB [5]): 0.093 µg/mL (≈ 0.308 µM); IC50 (P388 [6]): 0.14 µg/mL (≈ 0.463 µM) |
| O=[N+]([O-])c1ccc(S(=O)(=O)Nc2cccc3cc(Cl)[nH]c23)cc1 | 19 (≈ 54 µM) | 21 (≈ 59.7 µM) | 18 (≈ 51.2 µM) |  | Cell cycle analysis (P388 [1]): inactive |
| O=S(=O)(Nc1cc(Cl)cc2cc[nH]c12)c1ccc(Cl)cc1 | 8.5 (≈ 24.9 µM) | 9.9 (≈ 29 µM) | 9.1 (≈ 26.7 µM) |  | Cell cycle analysis (P388 [1]): inactive |
| Nc1ccc(S(=O)(=O)Nc2cccc3c(Cl)c[nH]c23)cc1 |  |  |  | GI increase | Concentration (P388 [11]): 4 µg/mL; Concentration (Bos taurus): > 33.3 µg/mL |
| O=[N+]([O-])c1ccc(S(=O)(=O)Nc2cccc3cc[nH]c23)cc1 | 7.2 (≈ 22.7 µM) | 8.2 (≈ 25.8 µM) | 15 (≈ 47.3 µM) |  | Cell cycle analysis (P388 [1]): inactive |
| O=[N+]([O-])c1ccc(S(=O)(=O)Nc2ccc(Cl)c3cc[nH]c23)cc1 | 0.67 (≈ 1.9 µM) | 3.3 (≈ 9.38 µM) | 9.1 (≈ 25.9 µM) | GI increase |  |
| Nc1ccc(S(=O)(=O)Nc2ccc(F)c3c(Cl)c[nH]c23)cc1 | 0.11 (≈ 0.324 µM) | 0.51 (≈ 1.5 µM) | 14 (≈ 41.2 µM) | GI increase |  |
| O=S(=O)(Nc1cccc2cc(Cl)[nH]c12)c1ccc(Cl)cc1 |  |  |  |  | Cell cycle analysis (P388 [12]): G2/M increase; Activity (Tubulin (Bos taurus) [3]): Active; IC50 (MC-38 [4]): 10 µg/mL (≈ 29.3 µM); IC50 (KB [5]): 4 µg/mL (≈ 11.7 µM); IC50 (P388 [6]): 7.4 µg/mL (≈ 21.7 µM) |

| Compound | IC50 (MC-38 [7]) [µg/mL] | IC50 (P388 [8]) [µg/mL] | IC50 (KB [9]) [µg/mL] | Cell cycle analysis (P388 [10]) | also measured |
| --- | --- | --- | --- | --- | --- |
| COc1ccc(S(=O)(=O)Nc2ccc(Cl)c3cc[nH]c23)cc1 | 0.65 (≈ 1.93 µM) | 1.1 (≈ 3.27 µM) | 0.92 (≈ 2.73 µM) |  | Cell cycle analysis (P388 [13]): Effect |
| Nc1ccc(S(=O)(=O)Nc2ccc(-c3ccccc3)c3c(Cl)c[nH]c23)cc1 | 19 (≈ 47.8 µM) | 19 (≈ 47.8 µM) | 15 (≈ 37.7 µM) |  | Cell cycle analysis (P388 [1]): inactive |
| COc1ccc(S(=O)(=O)Nc2cccnc2Nc2ccc(O)cc2)cc1 |  |  |  |  | Activity (Tubulin (Bos taurus) [14]): Active; Cell cycle analysis (P388 [2]): G2/M arrest |
| Nc1ccc(S(=O)(=O)Nc2ccc(Cl)c3c(Cl)c[nH]c23)cc1 | 0.1 (≈ 0.281 µM) | 0.49 (≈ 1.38 µM) | 14 (≈ 39.3 µM) | GI increase |  |
| O=S(=O)(Nc1cccc2cc(O)[nH]c12)c1ccc(Cl)cc1 | 4.5 (≈ 13.9 µM) | 2.2 (≈ 6.82 µM) | 1.1 (≈ 3.41 µM) |  | Cell cycle analysis (P388 [15]): G2/M arrest |
| Nc1ccc(S(=O)(=O)Nc2cccc3cc(Cl)[nH]c23)cc1 | 2.9 (≈ 9.01 µM) | 2.2 (≈ 6.84 µM) | 1.4 (≈ 4.35 µM) |  | Cell cycle analysis (P388 [15]): G2/M arrest |
| O=[N+]([O-])c1ccc(S(=O)(=O)Nc2cccc3cc(O)[nH]c23)cc1 | 62 (≈ 186 µM) | > 100 | > 100 |  | Cell cycle analysis (P388 [1]): inactive |
| Cc1ccc(NS(=O)(=O)c2ccc(N)cc2)c2[nH]cc(Cl)c12 | 0.1 (≈ 0.298 µM) | 0.37 (≈ 1.1 µM) | 16 (≈ 47.6 µM) | GI increase |  |
| N#Cc1ccc(S(=O)(=O)Nc2ccc(Cl)c3c(Cl)c[nH]c23)cc1 | 0.12 (≈ 0.328 µM) | 0.59 (≈ 1.61 µM) | 13 (≈ 35.5 µM) | GI increase |  |
| COc1ccc(S(=O)(=O)Nc2cccc3cc[nH]c23)cc1 |  |  |  |  | Cell cycle analysis (P388 [13]): Effect |
| N#Cc1ccc(S(=O)(=O)Nc2cccc3c(Cl)c[nH]c23)cc1 |  |  |  | GI increase |  |
| O=[N+]([O-])c1ccc(S(=O)(=O)Nc2cc(Cl)cc3cc[nH]c23)cc1 | 13 (≈ 37 µM) | 13 (≈ 37 µM) | 12 (≈ 34.1 µM) |  | Cell cycle analysis (P388 [1]): inactive |
| O=S(=O)(Nc1cccc2c(Cl)c[nH]c12)c1ccc(Cl)cc1 | 0.28 (≈ 0.821 µM) | 4.3 (≈ 12.6 µM) | 8.8 (≈ 25.8 µM) | GI increase |  |
| COc1ccc(S(=O)(=O)Nc2cccc3cc(O)[nH]c23)cc1 | 0.22 (≈ 0.691 µM) | 0.11 (≈ 0.346 µM) | 0.1 (≈ 0.314 µM) |  | Cell cycle analysis (P388 [2]): G2/M arrest |
| COc1ccc(S(=O)(=O)Nc2cccc3c(Cl)c[nH]c23)cc1 |  |  |  |  | Cell cycle analysis (P388 [15]): G2/M arrest; Activity (Tubulin (Bos taurus) [3]): Active |
| Nc1ccc(S(=O)(=O)Nc2cccc3cc(O)[nH]c23)cc1 | 1.8 (≈ 5.93 µM) | 1.2 (≈ 3.96 µM) | 0.86 (≈ 2.84 µM) |  | Cell cycle analysis (P388 [15]): G2/M arrest |
| COc1ccc(NS(=O)(=O)c2ccc(N)cc2)c2[nH]cc(Cl)c12 | 2.3 (≈ 6.54 µM) | 5.5 (≈ 15.6 µM) | 20 (≈ 56.8 µM) |  | Cell cycle analysis (P388 [1]): inactive |
